Source: PMC9143880, “Improving Antimicrobial Activity and Physico-Chemical Properties by Isosteric Replacement of 2-Aminothiazole with 2-Aminooxazole” (Pharmaceuticals, 2022)
≈ marks a conversion by molar mass, not a printed value. Where two headings read alike, the source gives them in different places.

What was measured:
HepG2 cells = test: HepG2 cytotoxicity screening (CellTiter 96); assay type: cell-based, human; conditions: for IC50: Homo sapiens, HepG2, 24 h, 24 h incubation, CellTiter 96, * above highest tested concentration, ** limited by insolubility in medium; for SI: SI = IC50 (µM) HepG2 / MICH37Ra (µM)
[1] = system: Staphylococcus aureus subsp. aureus CCM 4223 (ATCC 29213); test: Antibacterial microdilution broth (EUCAST); assay type: cell-based; conditions: Staphylococcus aureus; 24h incubation; read-out: MIC SA
[2] = system: Staphylococcus aureus subsp. aureus (MRSA) CCM 4750 (ATCC 43300); test: Antibacterial microdilution broth (EUCAST); assay type: cell-based; conditions: Staphylococcus aureus; 24h incubation; read-out: MIC MRSA
[3] = system: Enterococcus faecalis CCM 4224 (ATCC 29212); test: Antibacterial microdilution broth (EUCAST); assay type: cell-based; conditions: Enterococcus faecalis; 24h incubation; read-out: MIC EF
[4] = system: Candida krusei CCM 8271 (ATCC 6258); test: Antifungal microdilution broth (EUCAST); conditions: Pichia kudriavzevii, 24 h, read-out: MIC CK
[5] = system: Trichophyton interdigitale CCM 8377 (ATCC 9533); test: Antifungal microdilution broth (EUCAST); conditions: Trichophyton interdigitale, 72 h, read-out: MIC TI
[6] = system: Pseudomonas aeruginosa CCM 3955 (ATCC 27853); test: Antibacterial microdilution broth (EUCAST); assay type: cell-based; conditions: Pseudomonas aeruginosa; 72h incubation; read-out: MIC PA
[7] = system: Candida parapsilosis CCM 8260 (ATCC 22019); test: Antifungal microdilution broth (EUCAST); conditions: Lodderomyces parapsilosis, 24 h, read-out: MIC CP
[8] = system: Candida tropicalis CCM 8264 (ATCC 750); test: Antifungal microdilution broth (EUCAST); conditions: Candida tropicalis, 24 h, read-out: MIC CT
[9] = system: Aspergillus fumigatus ATCC 204305; test: Antifungal microdilution broth (EUCAST); conditions: Aspergillus fumigatus, ATCC204305, 24 h, read-out: MIC AF
[10] = system: Staphylococcus epidermidis CCM 4418 (ATCC 12228); test: Antibacterial microdilution broth (EUCAST); assay type: cell-based; conditions: Staphylococcus epidermidis; 24h incubation; read-out: MIC SE
[11] = Kinetic water solubility (water-induced precipitation of DMSO stock, UHPLC); assay type: physicochemical; conditions: for solubility: water (DMSO stock diluted with water), 18 °C, kinetic from dmso stock
Text: A low value of log P is often presumed to be related to increased water solubility, although this might not always be the case since log P is a measure of relative solubility of the compound in the lipophilic and hydrophilic solvents (at equilibrium). Therefore, to be sure, we tested whether the lowered log k’w (related to log P) of the oxazole derivatives would also translate to increased solubility in water in a few representative derivatives. The water solubility of selected compounds was assessed by the kinetic method based on water-induced precipitation of DMSO stock solutions of tested compounds due to reasons described by Azzali and colleagues.
Water solubility was investigated using the kinetic solubility method. The sample (1 mg) was dissolved in the smallest amount of DMSO needed, 25 or 50 μL for subtype I and subtype II compounds, respectively. The samples were mixed at 18 °C in a thermomixer (Thermomixer comfort, Eppendorf, Hamburg, Germany) for 1 h. After mixing, the samples were diluted with water to a concentration of 500 μM, and the precipitate was observed. The sample was filtered through a 0.22 μm filter and diluted to be evaluated by UHPLC. The log S parameter was calculated from the experimental solubility in molar concentration. The samples were measured using the same instrument, software, and column as used in the purity evaluation.

[12] = system: Aspergillus flavus CCM 8363; test: Antifungal microdilution broth (EUCAST); conditions: Aspergillus flavus, CCM8363, 24 h, read-out: MIC AFla
[13] = system: M. smegmatis DSM 43465 (ATCC 607); test: Antimycobacterial MIC, microdilution broth / resazurin; assay type: cell-based; conditions: Mycolicibacterium smegmatis; resazurin after 48 h; read-out: MIC M. smegmatis
[14] = system: Candida albicans CCM 8320 (ATCC 24433); test: Antifungal microdilution broth (EUCAST); conditions: Candida albicans, 24 h, read-out: MIC CA
[15] = system: M. aurum DSM 43999 (ATCC 23366); test: Antimycobacterial MIC, microdilution broth / resazurin; assay type: cell-based; conditions: Mycolicibacterium aurum, read-out: MIC M. aurum
[16] = system: Escherichia coli CCM 3954 (ATCC 25922); test: Antibacterial microdilution broth (EUCAST); assay type: cell-based; conditions: Escherichia coli; 24h incubation; read-out: MIC EC
[17] = system: Acinetobacter baumannii DSM 30007 (ATCC 19606); test: Antibacterial microdilution broth (EUCAST); assay type: cell-based; conditions: Acinetobacter baumannii; 24h incubation; read-out: MIC AB
[18] = system: Lichtheimia corymbifera CCM 8077; test: Antifungal microdilution broth (EUCAST); conditions: Lichtheimia corymbifera, CCM8077, 24 h, read-out: MIC LC
[19] = system: Mycobacterium tuberculosis H37Ra ITM-M006710 (ATCC 9431); test: Antimycobacterial MIC, microdilution broth / Alamar Blue (resazurin); assay type: cell-based; conditions: Mycobacterium tuberculosis
[20] = RP-UHPLC lipophilicity parameter log k’w; assay type: physicochemical; conditions: for log k’w: RP-UHPLC, acetonitrile/water, log k extrapolated to 0% acetonitrile; for logkw: experimental lipophilicity parameter
Method in brief: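 Retention was measured once per eluent composition: subtype I at 40/45/50% and subtype II at 20/30/40% acetonitrile in water, isocratic RP-UHPLC. log k values from these runs gave the lipophilicity index log k’w.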

[21] = system: M. avium DSM 44156 (ATCC 25291); test: Antimycobacterial MIC, microdilution broth / resazurin; assay type: cell-based, Mycobacterium avium; conditions: Mycobacterium avium; resazurin after 96 h; read-out: MIC M. avium
[22] = system: M. kansasii DSM 44162 (ATCC 12478); test: as above; assay type: cell-based; conditions: Mycobacterium kansasii, read-out: MIC M. kansasii
Mtb laboratory ID MATI = assay type: cell-based, Mycobacterium tuberculosis; conditions: MDR strain MATI, CLSI breakpoints 2021
Mtb laboratory ID IZAK = assay type: cell-based, Mycobacterium tuberculosis; conditions: MDR strain IZAK, CLSI breakpoints 2020
[23] = 120 h, Middlebrook 7H9, resazurin after 120 h, read-out: Mtb H37Ra MIC
[24] = calculated from experimentally measured water solubility in molar concentration, read-out: Exp. log S (converted)
[25] = water, kinetic method, DMSO stock diluted to 500 μM, read-out: Solubility
[26] = recalculated from µg/mL, read-out: MICH37Ra

Row | SMILES | IC50 (HepG2 cells) | MIC [1] | MIC [2] | MIC [3] | MIC [4] | MIC [5] | MIC [6] | MIC [7] | MIC [8] | MIC [9] | MIC [10] | MIC [12] | MIC [13] | MIC [14] | MIC ([15]; resazurin after 72 h) | MIC [16] | MIC [17] | MIC [18] | MIC [19, 23] | log k’w [20] | also measured
1 | O=C(Nc1nccs1)c1cccnc1 [Compound 2a] | > 1000 µM | > 500 µM | > 500 µM | > 500 µM | > 500 µM | > 500 µM | > 500 µM | > 500 µM | > 500 µM | > 500 µM | > 500 µM | > 500 µM | ≥ 500 µg/mL | > 500 µM | 250 µg/mL (≈ 1220 µM) | > 500 µM | > 500 µM | > 500 µM | 250 µg/mL |  | logS_exp [11]: -1.202
2 | O=C(Nc1ncco1)c1cccnc1 [Compound 2b] | > 1000 µM | 250 µM (≈ 47.3 µg/mL) | 500 µM (≈ 94.6 µg/mL) | > 500 µM | 500 µM (≈ 94.6 µg/mL) | 125 µM (≈ 23.6 µg/mL) | > 500 µM | 250 µM (≈ 47.3 µg/mL) | > 500 µM | > 500 µM | 500 µM (≈ 94.6 µg/mL) | > 500 µM | 62.5 µg/mL (≈ 330 µM) | 500 µM (≈ 94.6 µg/mL) | 15.6 µg/mL (≈ 82.6 µM) | > 500 µM | > 500 µM | > 500 µM | 31.2 µg/mL | 0.436 | logkw [20]: 0.4358; logS_exp ([11]; experimental log S): -0.9171; melting point: 155 to 160 °C
3 | O=C(Nc1nc(-c2ccccc2)cs1)c1ccnc(Cl)c1 [Compound 15a] | 103 µM | > 500 µM | > 500 µM | > 500 µM | > 125 µM | > 125 µM | > 500 µM | > 125 µM | > 125 µM | > 125 µM | > 500 µM | > 125 µM | 15.6 µg/mL (≈ 49.5 µM) | > 125 µM | 31.2 µg/mL (≈ 99 µM) | > 500 µM | > 500 µM | > 125 µM | 3.91 µg/mL | 3.036 | SI (HepG2 cells): 8.3; logkw [20]: 3.036; solubility [11, 24]: 6.61 µM; solubility [11, 25]: 2.1 µg/mL; MIC [21]: 15.6 µg/mL (≈ 49.5 µM); MIC ([22]; 96 h): < 3.91 µg/mL; melting point: 158 to 162 °C; MIC [19, 26]: 12.4 µM
4 | O=C(Nc1nc(-c2ccccc2)cs1)c1cccnc1 [Compound 12a] | > 25 µM | > 125 µM | > 125 µM | > 125 µM | > 125 µM | > 125 µM | > 125 µM | > 125 µM | > 125 µM | > 125 µM | > 125 µM | > 125 µM | ≥ 500 µg/mL | > 125 µM | ≥ 500 µg/mL | > 125 µM | > 125 µM | > 125 µM | ≥ 500 µg/mL | 2.131 | logkw [20]: 2.131; logS_exp ([11]; experimental log S): -3.188; solubility [11, 24]: 1 µM; solubility [11, 25]: 0.28 µg/mL; MIC [21]: ≥ 500 µg/mL; MIC ([22]; resazurin after 96 h): ≥ 500 µg/mL
5 | NC(=O)c1cnccn1 [PZA, pyrazinamide] |  |  |  |  |  |  |  |  |  |  |  |  |  |  |  |  |  |  |  |  | Concentration (susceptibility profile) (Mtb laboratory ID MATI): > 128 µg/mL; Susceptibility (Mtb laboratory ID MATI): resistant; Concentration (susceptibility profile) (Mtb laboratory ID IZAK): > 16 µg/mL; Susceptibility (Mtb laboratory ID IZAK): resistant
6 | [H]/N=C(/N)N[C@H]1[C@H](O)[C@@H](O)[C@H](O[C@@H]2O[C@@H](C)[C@](O)(C=O)[C@H]2O[C@@H]2O[C@@H](CO)[C@H](O)[C@@H](O)[C@@H]2NC)[C@@H](N/C(N)=N\[H])[C@@H]1O [STM, streptomycin] |  |  |  |  |  |  |  |  |  |  |  |  |  |  |  |  |  |  |  |  | Concentration (susceptibility profile) (Mtb laboratory ID MATI): > 16 µg/mL; Susceptibility (Mtb laboratory ID MATI): resistant; Concentration (susceptibility profile) (Mtb laboratory ID IZAK): 4 µg/mL; Susceptibility (Mtb laboratory ID IZAK): resistant
7 | O=C(Nc1nccs1)c1ccnc(Cl)c1 [Compound 6a] | > 250 µM | > 500 µM | > 500 µM | > 500 µM | > 500 µM | > 500 µM | > 500 µM | > 500 µM | > 500 µM | > 500 µM | > 500 µM | > 500 µM | ≥ 500 µg/mL | > 500 µM | ≥ 500 µg/mL | > 500 µM | > 500 µM | > 500 µM | ≥ 500 µg/mL | 2.013 | logkw [20]: 2.013; solubility [11, 24]: 126 µM; solubility [11, 25]: 29.9 µg/mL; MIC [21]: ≥ 500 µg/mL; MIC ([22]; resazurin after 96 h): ≥ 500 µg/mL; melting point: 152 to 154 °C
8 | O=C(Nc1nc(-c2ccccc2)co1)c1cccnc1 [Compound 12b] | 610 µM | 500 µM (≈ 133 µg/mL) | > 500 µM | > 500 µM | > 500 µM | > 500 µM | > 500 µM | > 500 µM | > 500 µM | > 500 µM | 62.5 µM (≈ 16.6 µg/mL) | > 500 µM | 500 µg/mL (≈ 1880 µM) | > 500 µM | 250 µg/mL (≈ 942 µM) | > 500 µM | > 500 µM | > 500 µM | 125 µg/mL | 1.118 | logkw [20]: 1.118; logS_exp ([11]; experimental log S): -2.228; solubility [11, 24]: 437 µM; solubility [11, 25]: 116 µg/mL
9 | O=C(Nc1nc(-c2ccccc2)co1)c1ccnc(Cl)c1 [Compound 15b] | 136 µM | 62.5 µM (≈ 18.7 µg/mL) | 62.5 µM (≈ 18.7 µg/mL) | 250 µM (≈ 74.9 µg/mL) | 500 µM (≈ 150 µg/mL) | 500 µM (≈ 150 µg/mL) | > 500 µM | 500 µM (≈ 150 µg/mL) | 500 µM (≈ 150 µg/mL) | > 500 µM | 250 µM (≈ 74.9 µg/mL) | > 500 µM | 31.2 µg/mL (≈ 104 µM) | 500 µM (≈ 150 µg/mL) |  | > 500 µM | 500 µM (≈ 150 µg/mL) | > 500 µM | 7.81 µg/mL | 1.992 | SI (HepG2 cells): 5.2; logkw [20]: 1.992; solubility [11, 24]: 417 µM; solubility [11, 25]: 124 µg/mL; MIC ([15]; 72 h): 7.81 µg/mL (≈ 26.1 µM); MIC [21]: 15.6 µg/mL (≈ 52.1 µM); MIC ([22]; resazurin after 96 h): 15.6 µg/mL (≈ 52.1 µM); MIC [19, 26]: 26.1 µM
